Results taken from patent US9242981B2, “Fused pyrazole derivatives as novel ERK inhibitors” (Merck Sharp & Dohme Corp., priority 2010, dated 2016).

Legend:
[1] = molecular target: ERK protein (Mus musculus, UniProt P63085); experiment: TdF (Temperature Dependence Fluorescence, thermal shift) assay for ERK; format: binding; settings: Table 2; 3 μM ERK protein
Excerpt: The SAR (Structure Activity Relationship) for ERK ligands covered by this invention was interrogated using the TdF (Temperature Dependence Fluorescence) assay or best known as thermal shift assay. (M. W. Pantoliano, et al., “High-density miniaturized thermal shift assays as a general strategy for drug discovery,” J. Biomol. Screen 6 (2001) 429-440) The TdF assay was mainly conducted in the 96-well based CHROMO-4 real time fluorescence plate reader (BioRad). The Sypro Orange (Sigma-Aldrich), environmentally sensitive fluorescence dye, was used to monitor the protein folding-unfolding transition. Protein-ligand binding was gauged by the change (or shift) in the unfolding transition temperature (ΔTm) acquired at protein alone with respect to protein in the presence of ligand of interest.
Compound of interest was first prepared in DMSO stock (typical concentration: 10 mM). […] Final percentage of DMSO resided in the sample was 2%. The sample plate was heated from 30° C. to 90° C. with thermal ramping rate of 1° C./min. The fluorescence signals were acquired with excitation and emission wavelengths centered at 490 and 560 nm respectively. The instrument thermal stability was ±0.2° C. The melting temperatures (Tm) for ERK protein under aforementioned conditions occurred at […] and 64.8±0.2° C. respectively.
The derivation of TdF-based ligand binding affinity constant (Kd) followed closely those previously formulated by Brandts and Lin. (J. F. Brandts, L.-N. Lin, “Study of strong to ultratight protein interactions using differential scanning calorimetry,” Biochemistry 29 (1990) 6927-6940). In brief, the binding constant of the ligand at the Tm is expressed as below:
[formula] where T0 is the midpoint of unfolding for unliganded protein and Tm is the midpoint of unfolding in presence of ligand. [LTm] is free ligand at Tm. The ΔHu and ΔCpu are the enthalpy of unfolding and heat capacity change of unfolding for the protein respectively. Following algorithm derived by Winsor and coworker, the T0, ΔHu and ΔCpu can be determined separately from nonlinear regression fitting the protein alone melting curve:
[formula] where F(T) is the observed fluorescence intensity at any temperature T, Yn, and Yu are the predicted fluorescence intensities for fully folded and unfolded protein, respectively; mn and mu are slope correction for changes in Yn and Yu with respect to changes in temperature (analogously replace T0 with Tm in the above equation for liganded protein to yield Tm). (Mayhood, T. W., Windsor, W. T., “Ligand binding affinity determined by temperature-dependent circular dichroism: Cyclin-dependent kinase 2 inhibitors,” Analytical Biochemistry 345 (2005) 187-197).
[formula] where ΔHL (T) is the van't Hoff enthalpy of ligand binding at temperature T and ΔCpL is the heat capacity upon ligand binding. For simplicity, the ΔCpL and ΔHL (T) were set to zero and -7 kcal/mol respectively. […]

[2] = molecular target: Mouse ERK2 protein (Mus musculus (Mouse), UniProt P63085); experiment: Coupled MEK1/ERK2 IMAP assay or Active ERK2 IMAP assay; format: biochemical; settings: Table 2, 30 μM ATP
Mouse ERK2 protein, sequence (P63085 whole entry): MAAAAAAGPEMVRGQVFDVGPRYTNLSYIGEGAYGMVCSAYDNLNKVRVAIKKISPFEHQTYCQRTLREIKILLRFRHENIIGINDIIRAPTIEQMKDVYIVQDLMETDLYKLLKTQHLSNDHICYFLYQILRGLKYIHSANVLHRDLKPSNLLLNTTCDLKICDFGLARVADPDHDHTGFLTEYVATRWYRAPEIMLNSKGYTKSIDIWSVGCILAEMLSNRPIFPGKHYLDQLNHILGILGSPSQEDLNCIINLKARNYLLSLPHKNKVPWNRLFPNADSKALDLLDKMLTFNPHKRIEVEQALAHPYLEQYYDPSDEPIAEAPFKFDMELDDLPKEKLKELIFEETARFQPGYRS

ERK protein, sequence (P63085 2-358 limits assumed): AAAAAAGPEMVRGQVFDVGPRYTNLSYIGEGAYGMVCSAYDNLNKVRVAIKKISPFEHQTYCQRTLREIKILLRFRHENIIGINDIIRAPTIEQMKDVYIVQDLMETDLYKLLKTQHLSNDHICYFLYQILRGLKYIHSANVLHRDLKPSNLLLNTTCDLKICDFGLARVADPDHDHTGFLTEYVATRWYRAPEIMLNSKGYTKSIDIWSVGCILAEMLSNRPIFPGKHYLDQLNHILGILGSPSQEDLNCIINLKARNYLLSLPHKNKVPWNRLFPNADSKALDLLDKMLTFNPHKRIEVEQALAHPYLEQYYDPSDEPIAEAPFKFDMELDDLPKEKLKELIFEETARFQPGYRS

Kd [1] [nM] | IC50 [2] [nM] | Structure (SMILES)
2.1 | 2.01 | CC(=O)n1cc(CN2CCC[C@@H](NC(=O)N3CCc4[nH]nc(-c5ccncc5)c4C3)C2)c2ccccc21 [Compound 62, N-[1-[(1-acetyl-1H-indol-3-yl)methyl]-3(R)-piperidinyl]-1,4,6,7-tetrahydro-3-(4-pyridinyl)-5H-pyrazolo[4,3-c]pyridine-5-carboxamide]
0.31 | 2.4 | O=C(N[C@@H]1CCCN(Cc2ccccc2Cl)C1)N1CCc2[nH]nc(-c3ccncc3)c2C1 [Compound 69, N-[1-[(2-chlorophenyl)-methyl]-3(R)-piperidinyl]-1,4,6,7-tetrahydro-3-(4-pyridinyl)-5H-pyrazolo[4,3-c]pyridine-5-carboxamide]
0.15 | 2.07 | Cc1cccc(C)c1CN1CCC[C@@H](NC(=O)N2CCc3[nH]nc(-c4ccncc4)c3C2)C1 [Compound 71, N-[1-[(2,6-dimethylphenyl)-methyl]-3(R)-piperidinyl]-1,4,6,7-tetrahydro-3-(4-pyridinyl)-5H-pyrazolo[4,3-c]pyridine-5-carboxamide]
0.13 | 6.3 | Cc1cc(-c2n[nH]c3c2CN(C(=O)NC2CCCN(Cc4c(C)cccc4C)C2)CC3)ccn1 (centres unmarked) [Compound 84, N-[1-[(2,6-dimethylphenyl)-methyl]-3-piperidinyl]-1,4,6,7-tetrahydro-3-(2-methyl-4-pyridinyl)-5H-pyrazolo[4,3-c]pyridine-5-carboxamide]
0.4 | 3.7 | Cc1cc(-c2n[nH]c3c2CN(C(=O)N[C@@H]2CCCN(Cc4cccc5ccccc45)C2)CC3)ccn1 [Compound 100, 1,4,6,7-tetrahydro-3-(2-methyl-4-pyridinyl)-N-[1-(1-naphthalenylmethyl)-3(R)-piperidinyl]-5H-pyrazolo[4,3-c]pyridine-5-carboxamide]
0.14 | 3 | O=C(N[C@@H]1CCCN(Cc2csc3ccccc23)C1)N1CCc2[nH]nc(-c3ccc4nccn4c3)c2C1 [Compound 109, N-[1-(benzo[b]thien-3-ylmethyl)-3(R)-piperidinyl]-1,4,6,7-tetrahydro-3-(imidazo[1,2-a]pyridin-6-yl)-5H-pyrazolo[4,3-c]pyridine-5-carboxamide]
0.03 | 5.3 | Cc1cccc(C)c1CN1CCC[C@@H](NC(=O)N2CCc3[nH]nc(-c4ccc5nccn5c4)c3C2)C1 [Compound 110]
0.12 | 3.1 | O=C(N[C@@H]1CCCN(Cc2cccc3ccccc23)C1)N1CCc2[nH]nc(-c3ccc4nccn4c3)c2C1 [Compound 112, 1,4,6,7-tetrahydro-3-imidazo[1,2-a]pyridin-6-yl-N-[1-(1-naphthalenylmethyl)-3(R)-piperidinyl]-5H-pyrazolo[4,3-c]pyridine-5-carboxamide]
0.03 | 4.2 | COc1cccc(F)c1CN1CCC[C@@H](NC(=O)N2CCc3[nH]nc(-c4ccc5nccn5c4)c3C2)C1 [Compound 113, N-[1-[(2-fluoro-6-methoxyphenyl)methyl]-3(R)-piperidinyl]-1,4,6,7-tetrahydro-3-(imidazo[1,2-a]pyridin-6-yl)-5H-pyrazolo[4,3-c]pyridine-5-carboxamide]
0.06 | 4.3 | COc1cccc(F)c1CN1CC(NC(=O)N2CCc3[nH]nc(-c4ccnc(C)c4)c3C2)CC(C(F)(F)F)C1 (centres unmarked) [Compound 123, N-[1-[(2-fluoro-6-methoxyphenyl)methyl]-5-(trifluoromethyl)-3-piperidinyl]-1,4,6,7-tetrahydro-3-(2-methyl-4-pyridinyl)-5H-pyrazolo[4,3-c]pyridine-5-carboxamide]
